The values that follow come from patent publication US20170105981A1, “METHODS FOR STABILIZING HYPOXIA INDUCIBLE FACTOR-2 ALPHA AS A METHOD FOR TREATING CANCER” (The Ohio State Innovation Foundation, priority 2011, published 2017).

One test deals with VEGF. The experiment in a line: VEGF production by human peripheral blood monocytes (ELISA, real-time PCR). In kind it is cell-based. The settings on record: monocytes with GM-CSF and compound vs GM-CSF alone; p=0.556; FIG. 11C. The protocol:
Human peripheral blood mononuclear cells (PBMCs) were isolated from fresh peripheral blood leukocyte source packs (American Red Cross, Columbus Ohio) by density gradient centrifugation over Lymphocyte Separation Medium (Cellgro). Monocytes were purified from total PBMCs by layering over FBS. Monocytes were cultured in endotoxin-free RPMI-1640 supplemented with 1% fetal bovine serum (FBS), 0.1% human serum albumin (HSA), and 10 μg/mL of the endotoxin inhibitor polymyxin B. In some experiments, freshly isolated monocytes were differentiated into macrophages by three-day culture in media containing 10% FBS, 1% PSA (penicillin G sodium, streptomycin sulfate, and amphotericin B), and 20 ng/mL M-CSF. Macrophages were serum-starved for 2 hours prior to stimulation. Monocytes or monocyte-derived macrophages were treated for 24 hours with 10 ng/mL GM-CSF, 10 μM disclosed HIF-2α stabilizer, or an equivalent volume of the vehicle controls (PBS or DMSO, respectively). Cell-free culture supematants were harvested and analyzed for VEGF or sVEGFR-1 by ELISA (R&D Systems).
Human monocytes were left untreated or were stimulated with 100 ng/mL GM-CSF at normoxia or at 0.5% O2. At various time-points, cells were harvested in Trizol reagent (Invitrogen) and RNA was extracted in chloroform and then purified using the RNeasy Minikit (Qiagen). In murine studies, organs harvested at the time of euthanasia were flash-frozen in liquid nitrogen, pulverized in liquid nitrogen, and then dissolved in Trizol. cDNA was generated from 1 μg of RNA using the Superscript First Strand Synthesis System (Invitrogen) and used for real-time PCR using previously described primers and SYBR Green PCR Master Mix (Applied Biosciences), according to the manufacturer's instructions. Data were analyzed according to the comparative threshold method and normalized against the β-actin internal control transcript. Results are semi-quantitative and represent the fold difference in transcript levels in a particular sample as compared with levels in untreated cells from the same donor. […]

In test [1] the test system is tumor growth in HIF-2αflox/flox/LysMcre and LysMcre mice. The experiment in a line: Tumor growth in mice with myeloid-specific deletion of HIF-2α vs LysMcre control mice. The test is classed as in vivo. The settings on record: FIG. 15. An excerpt: HIF-2α^flox/flox mice (originally developed by Dr. Celeste Simon, University of Pennsylvania) and LysMcre recombinase mice (originally developed by Irmgard Foerster, University of Duesseldorf) (both purchased from The Jackson Laboratory, Bar Harbor, Me.) were crossed to generate mice homozygous for both LysMcre and the floxed HIF-2α allele. LysMcre recombinase mice, which express no floxed alleles, were used as controls. Deletion of HIF-2α in HIF-2α^flox/flox/LysMcre macrophages, but not the LysMcre control macrophages, was confirmed at the transcript level by real-time PCR.
The disclosed HIF-2α stabilizer is not targeted specifically to macrophages, and will stabilize HIF-2α in all tissues, not only the tumor-associated macrophages. In order to determine the role of macrophages in the anti-tumor response to the disclosed HIF-2α stabilizer, mice with a myeloid-specific deletion of HIF-2α (HIF-2α^flox/flox/LysMcre mice) were utilized.

On to `O=C(O)CNC(=O)c1ncc(-c2cccc(F)c2)cc1O` [disclosed HIF-2α stabilizer, {[5-(3-Fluorophenyl)-3-hydroxypyridine-2-carbonyl]amino} acetic acid], for which the VEGF transcript levels result in the test on VEGF is recorded as “no difference”. Also, the tumor growth result in test [1] (LysMcre control mice) is given as “inhibited tumor growth”; in test [1] (mice with HIF-2α-deficient macrophages, magnitude much less than in control mice) it was “reduced tumor growth”.
